# Marks after values point to notes of the source that are not given here.
# Experiments:
# Sirt2 = target: T1, Sirt2 (Homo sapiens, UniProt Q8IXJ6); test: SIRT2 Fluorimetric Drug Discovery Kit, Sirt2 activation; type: biochemical
# T1 construct: purchased BioMol, Hamburg, Germany
# T1 sequence (Q8IXJ6 1-389): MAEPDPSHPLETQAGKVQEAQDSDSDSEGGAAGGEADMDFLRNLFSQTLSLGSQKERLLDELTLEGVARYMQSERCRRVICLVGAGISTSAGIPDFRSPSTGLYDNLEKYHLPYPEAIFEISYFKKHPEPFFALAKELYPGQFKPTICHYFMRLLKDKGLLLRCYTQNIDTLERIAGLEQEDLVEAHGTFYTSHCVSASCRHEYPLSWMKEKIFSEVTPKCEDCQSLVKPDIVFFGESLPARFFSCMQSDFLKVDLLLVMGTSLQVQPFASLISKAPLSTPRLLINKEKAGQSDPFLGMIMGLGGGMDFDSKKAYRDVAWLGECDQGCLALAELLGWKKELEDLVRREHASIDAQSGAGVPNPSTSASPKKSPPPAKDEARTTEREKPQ
# [1] = system: normal human dermal fibroblasts (NHDF); test: Mitochondria content of NHDF, Mito-ID Green Detection Kit; type: cell-based
# Description: (§1) The effect of compound (I-1) on mitochondria biosynthesis was investigated in normal human dermal fibroblasts (NHDF). NHDF were obtained from PromoCell (Lot No. 006151; donor; from eyelid skin) and cultivated in Fibroblast Growth Medium (PromoCell; Cat. No. C-023020) supplemented with Supplement Mix (PromoCell; Cat. No. C-039215) at 37 °C /5% CO2. NHDF were seeded in flat-bottom 96-well plates (5000 cells / well) and incubated in said medium for 24 h or 48 h, respectively, with the compounds present in concentrations ranging from 0.03 µM to 200 µM. Mitochondria content was analyzed using the Mito-ID® Green Detection Kit for fluorescence microscopy (Enzo Life Sciences; Cat. No. ENZ-51055-K500). Fluorometric analysis was done using a Spectramax plate reader (Molecular Devices) and following the manufacturer's protocol. Cytotoxicity was determined in parallel by fluorometric readout using the Resazurin Based In Vitro Toxicology Assay Kit (Sigma Aldrich, Cat. No. TOX-8), and following the manufacturer's protocol.
# Sirt3 = target: T2, Sirt3 (Homo sapiens, UniProt Q9NTG7); test: SIRT3 Fluorimetric Drug Discovery Kit, Sirt3 activation; type: biochemical
# T2 construct: purchased BioMol, Hamburg, Germany
# T2 sequence (Q9NTG7 1-399): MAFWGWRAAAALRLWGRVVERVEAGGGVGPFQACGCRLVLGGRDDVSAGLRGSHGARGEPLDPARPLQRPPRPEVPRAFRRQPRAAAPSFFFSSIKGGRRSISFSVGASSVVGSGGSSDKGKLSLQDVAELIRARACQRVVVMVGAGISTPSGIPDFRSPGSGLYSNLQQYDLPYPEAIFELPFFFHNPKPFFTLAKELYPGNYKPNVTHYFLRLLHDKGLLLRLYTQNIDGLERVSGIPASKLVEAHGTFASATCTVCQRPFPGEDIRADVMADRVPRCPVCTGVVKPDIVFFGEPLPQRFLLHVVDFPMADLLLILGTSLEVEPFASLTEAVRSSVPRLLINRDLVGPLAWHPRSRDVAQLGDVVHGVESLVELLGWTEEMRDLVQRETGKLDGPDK
# [2] = system: normal human dermal fibroblasts (NHDF); test: Resazurin based cytotoxicity assay in NHDF; type: cell-based; conditions: 24 h and 48 h, 0.03 µM to 200 µM
# Description: as §1
smiles,measurement,setting,value
CCOC(=O)c1c(O)cccc1/C=C/c1ccc(OCC)cc1 [(I-1)],remaining activity at 0.3 µM,"Sirt2; Example 2, Table 4, 0.3 µM, read-out: Activity [% control]",114%
same,remaining activity at 1 µM,"Sirt2; Example 2, Table 4, 1.0 µM, read-out: Activity [% control]",142%
same,remaining activity at 3 µM,"Sirt2; Example 2, Table 4, 3.0 µM, read-out: Activity [% control]",204%
same,remaining activity at 10 µM,"Sirt2; Example 2, Table 4, 10.0 µM, read-out: Activity [% control]",530%
same,remaining activity at 30 µM,"Sirt2; Example 2, Table 4, 30.0 µM, read-out: Activity [% control]",914%
same,EC300,"Sirt2; Example 2, Table 6, Sirt2",4.9 µM
same,Signal intensity [% Control],"[1]; 24 h incubation time, 0.03 µM",100 % Control
same,Signal intensity [% Control],"[1]; 24 h incubation time, 0.09 µM",99 % Control
same,Signal intensity [% Control],"[1]; 24 h incubation time, 0.27 µM",100 % Control
same,Signal intensity [% Control],"[1]; 24 h incubation time, 0.82 µM",101 % Control
same,Signal intensity [% Control],"[1]; 24 h incubation time, 2.47 µM",103 % Control
same,Signal intensity [% Control],"[1]; 24 h incubation time, 7.41 µM",114 % Control
same,Signal intensity [% Control],"[1]; 24 h incubation time, 22.22 µM",182 % Control
same,Signal intensity [% Control],"[1]; 24 h incubation time, 66.67 µM",354 % Control
same,Signal intensity [% Control],"[1]; 24 h incubation time, 200.00 µM",906 % Control
same,Signal intensity [% Control],"[1]; 48 h incubation time, 0.03 µM",97 % Control
same,Signal intensity [% Control],"[1]; 48 h incubation time, 0.09 µM",92 % Control
same,Signal intensity [% Control],"[1]; 48 h incubation time, 0.27 µM",91 % Control
same,Signal intensity [% Control],"[1]; 48 h incubation time, 0.82 µM",93 % Control
same,Signal intensity [% Control],"[1]; 48 h incubation time, 2.47 µM",94 % Control
same,Signal intensity [% Control],"[1]; 48 h incubation time, 7.41 µM",103 % Control
same,Signal intensity [% Control],"[1]; 48 h incubation time, 22.22 µM",147 % Control
same,Signal intensity [% Control],"[1]; 48 h incubation time, 66.67 µM",293 % Control
same,Signal intensity [% Control],"[1]; 48 h incubation time, 200.00 µM",765 % Control
same,concentrations with significant enhancement of mitochondria biosynthesis,"[1]; NHDF, 24 h and 48 h",≥ 10 µM
same,remaining activity at 0.3 µM,"Sirt3; Example 2, Table 5, 0.3 µM, read-out: Activity [% control]",109%
same,remaining activity at 1 µM,"Sirt3; Example 2, Table 5, 1.0 µM, read-out: Activity [% control]",124%
same,remaining activity at 3 µM,"Sirt3; Example 2, Table 5, 3.0 µM, read-out: Activity [% control]",156%
same,remaining activity at 10 µM,"Sirt3; Example 2, Table 5, 10.0 µM, read-out: Activity [% control]",216%
same,remaining activity at 30 µM,"Sirt3; Example 2, Table 5, 30.0 µM, read-out: Activity [% control]",247%
same,EC300,"Sirt3; Example 2, Table 6, Sirt3, footnote for (I-1): clear activation in dose-response curve visible",>30* µM
same,cytotoxicity or loss of cell viability,[2],no cytotoxicity or loss of cell viability

# Reference: patent EP2801357A1, “Carboxylated stilbenes for activating AMPK and sirtuins” (IMD Natural Solutions GmbH, priority 2013, dated 2014)
